What was measured:
[1] = Ultraviolet absorption spectrum; assay type: physicochemical; conditions: ethanol solution, 10 ppm, quartz cell, optical path 10 mm
Text: The wavelength at the maximum absorption (λ max) and the molar extinction coefficient (E) were found by measuring ultraviolet absorption spectrum of an ethanol solution of the sample having a concentration of 10 ppm in a quartz cell having an optical path of 10 mm by means of a spectrophotometer (UV-200S, made by SHIMADZU CORPORATION).

[2] = system: skin of a quinea pig; experiment: Percutaneous absorption, diffusion cell (Franz); assay type: in vitro ADME; conditions: 1 % aqueous solution of sodium salt, 33 C, 20 hours
Description: The skin of a quinea pig was peeled, washed with physiological saline and then set in a percutaneous absopriton apparatus which was made in accordance with the description in Franz, T. J, J. Invest, Dermotal 64 , 190, 1975, by means of a diffusion cell. The sample room was filled with […] of a 1 % aqueous solution of sodium salt of the obtained polystyrene derivative, and the acceptor was filled with physiological saline. After maintaining at 33 C for 20 hours while stirring with a magnetic stirrier, the physiological saline in the acceptor was taken out, and the ultraviolet absorbency was measured. As the result, when the polystyrene derivative was used, the absorption curve of the ultraviolet absorption spectrum was similar to that obtained when the physiological saline was solely used as a negative control. When a compound having a lower molecular weight (1 % aqueous solution of sodium salt of p-aminobenzoic acid) was used as a positive control, the compound was observed by the ultraviolet absorption spectrum corresponding to 95 ppm in connection.

C=Cc1ccc(CN(N=CC=Cc2ccccc2)C(=S)NC)cc1 [Example 14, cinnamaldehyde 4-methyl-2-p-vinylbenzylthiosemicarbazone]
Molar extinction coefficient (ε) [1]: 46,000 | Wavelength at the maximum absorption (λ max) [1]: 335 nm

C=Cc1ccc(CN(N=Cc2ccco2)C(=S)NC)cc1 [Example 11, 2'-furylaldehyde 4-methyl-2-p-vinylbenzylthiosemicarbazone]
Molar extinction coefficient (ε) [1]: 34,000 | Wavelength at the maximum absorption (λ max) [1]: 321 nm

C=Cc1ccc(CN(N=Cc2ccc(C=CC(=O)O)cc2)C(=S)NC)cc1 [Example 3, p'-carboxyvinylenebenzaldehyde 4-methyl-2-p-vinylbenzylthiosemicarbazone]
Molar extinction coefficient (ε) [1]: 60,000 | Wavelength at the maximum absorption (λ max) [1]: 348 nm

C=Cc1ccc(CN(N=Cc2ccc(C(=O)O)cc2)C(N)=O)cc1 [Example 4, p'-carboxybenzaldehyde 2-p-vinylbenzylsemicarbazone]
Molar extinction coefficient (ε) [1]: 29,000 | Wavelength at the maximum absorption (λ max) [1]: 306 nm

C=Cc1ccc(CNC(=S)N(C)N=Cc2ccc(C(=O)O)cc2)cc1 [Example 2, p'-carboxybenzaldehyde 2-methyl-4-P-vinylbenzylthiosemicarbazone]
Molar extinction coefficient (ε) [1]: 40,000 | Wavelength at the maximum absorption (λ max) [1]: 332 nm

C=Cc1ccc(CN(N=Cc2ccccc2)C(=S)NC)cc1 [Example 6, benzaldehyde 4-methyl-2-p-vinylbenzylthiosemicarbazone]
Molar extinction coefficient (ε) [1]: 33,000 | Wavelength at the maximum absorption (λ max) [1]: 317 nm

C=Cc1ccc(CN(N=Cc2ccc(C(=O)O)cc2)C(=O)NC)cc1 [Example 5, p'-carboxybenzaldehyde 4-methyl-2-p-vinylbenzylsemicarbazone]
Molar extinction coefficient (ε) [1]: 29,000 | Wavelength at the maximum absorption (λ max) [1]: 310 nm

Nc1ccc(C(=O)O)cc1 [p-aminobenzoic acid]
compound observed in the acceptor by the ultraviolet absorption spectrum [2]: 95 ppm

C=Cc1ccc(CN(N=Cc2ccc(N(C)C)cc2)C(=S)NC)cc1 [Example 8, p'-dimethylaminobenzaldehyde 4-methyl-2-p-vinylbenzylthiosemicarbazone]
Molar extinction coefficient (ε) [1]: 38,000 | Wavelength at the maximum absorption (λ max) [1]: 358 nm

C=Cc1ccc(C(=O)CC(=O)c2ccc(C(=O)OC)cc2)cc1 [4-methyoxycarbonyl-4'-vinyldibenzoylmethane]
Molar extinction coefficient (ε) [1]: 33,000 | Wavelength at the maximum absorption (λ max) [1]: 361 nm

C=Cc1ccc(CN(N=Cc2ccncc2)C(=S)NC)cc1 [Example 13, isonicotinic aldehyde 4-methyl-2-p-vinylbenzylthiosemicarbazone]
Molar extinction coefficient (ε) [1]: 36,000 | Wavelength at the maximum absorption (λ max) [1]: 325 nm

C=Cc1ccc(CN(N=Cc2ccc(Cl)cc2)C(=S)NC)cc1 [Example 9, p'-chlorobenzaldehyde 4-methyl-2-p-vinylbenzylthiosemicarbazone]
Molar extinction coefficient (ε) [1]: 41,000 | Wavelength at the maximum absorption (λ max) [1]: 318 nm

C=Cc1ccc(C(=O)CC(=O)c2ccc(C(=O)O)cc2)cc1 [Example 57, 4-carboxy-4'-vinyldibenzoylmethane]
Molar extinction coefficient (ε) [1]: 34,000 | Wavelength at the maximum absorption (λ max) [1]: 361 nm

C=Cc1ccc(CN(N=Cc2cccs2)C(=S)NC)cc1 [Example 12, 2'-thienylaldehyde 4-methyl-2-p-vinylbenzylthiosemicarbazone]
Molar extinction coefficient (ε) [1]: 39,000 | Wavelength at the maximum absorption (λ max) [1]: 333 nm

C=Cc1ccc(CN(N=Cc2ccc(C)cc2)C(=S)NC)cc1 [Example 7, p'-methylbenzaldehyde 4-methyl-2-p-vinylbenzylthiosemicarbazone]
Molar extinction coefficient (ε) [1]: 33,000 | Wavelength at the maximum absorption (λ max) [1]: 317 nm

C=Cc1ccc(CN(N=Cc2ccc([N+](=O)[O-])cc2)C(=S)NC)cc1 [Example 10, p'-nitrobenzaldehyde 4-methyl-2-p-vinylbenzylthiosemicarbazone]
Molar extinction coefficient (ε) [1]: 36,000 | Wavelength at the maximum absorption (λ max) [1]: 359 nm

C=Cc1ccc(CN(N=Cc2ccc(C(=O)O)cc2)C(=S)NC)cc1 [Example 1, p'-carboxybenzaidehyde 4-methyl-2-p-vinylbenzylthiosemicarbazone]
Molar extinction coefficient (ε) [1]: 33,000 | Wavelength at the maximum absorption (λ max) [1]: 331 nm
